Measurements reported in PubChem BioAssay AID1259407 (Chemical Carcinogenesis Research Information System (CCRIS), 2018).
Activity calls are given as the source filed them. No rule for the calls is given here.

System: CCRIS mutagenicity, Ames/micronucleus/aberration tests
Experiment: CCRIS mutagenicity studies
[1] = Test System: AMES SALMONELLA TYPHIMURIUM, Strain/Indicator: TA98, Metabolic Activation: NONE, Method: PREINCUBATION
[2] = Test System: AMES SALMONELLA TYPHIMURIUM, Strain/Indicator: TA98, Metabolic Activation: RAT, LIVER, S-9, AROCLOR 1254, Method: PREINCUBATION
[3] = Test System: AMES SALMONELLA TYPHIMURIUM, Strain/Indicator: TA100, Metabolic Activation: NONE, Method: PREINCUBATION
[4] = Test System: AMES SALMONELLA TYPHIMURIUM, Strain/Indicator: TA100, Metabolic Activation: RAT, LIVER, S-9, AROCLOR 1254, Method: PREINCUBATION
[5] = Test System: AMES SALMONELLA TYPHIMURIUM, Strain/Indicator: TA98, Metabolic Activation: RAT, LIVER, S-9, KANECHLOR 500, Method: PREINCUBATION
[6] = Test System: AMES SALMONELLA TYPHIMURIUM, Strain/Indicator: TA100, Metabolic Activation: RAT, LIVER, S-9, KANECHLOR 500, Method: PREINCUBATION

SMILES	mutagenic call [1]	mutagenic call [2]	mutagenic call [3]	mutagenic call [4]	mutagenic call [5]	mutagenic call [6]	also measured
O=C/C=C/C=C/CO	–	–	–	–	–	–	mutagenic call (Test System: CHINESE HAMSTER V-79, Strain/Indicator: V-79 (HGPRT)/8-AZAGUANINE, Metabolic Activation: NONE): active; positive
Cc1cnc(C)c(C)n1	inactive; negative	inactive; negative	inactive; negative	inactive; negative	–	–	mutagenic call (Test System: AMES SALMONELLA TYPHIMURIUM, Strain/Indicator: TA102, Metabolic Activation: NONE, Method: PREINCUBATION): inactive; negative; mutagenic call (Test System: AMES SALMONELLA TYPHIMURIUM, Strain/Indicator: TA102, Metabolic Activation: RAT, LIVER, S-9, AROCLOR 1254, Method: PREINCUBATION): inactive; negative
OC[C@@H](O)CCl	inactive; negative	–	active; positive	–	inactive; negative	inactive; negative	mutagenic call (Test System: AMES SALMONELLA TYPHIMURIUM, Strain/Indicator: TA100, Metabolic Activation: RAT, LIVER, S-9, PCB, Method: PREINCUBATION): active; positive
N#[N+]c1cnc([O-])[nH]c1=O	active; positive	active; positive	active; positive	active; positive	–	–	–
COc1ccc2c(c1)C(=O)c1nccc3cc(OC)c(OC)c-2c13	–	–	–	–	–	–	mutagenic call (Test System: AMES SALMONELLA TYPHIMURIUM, Strain/Indicator: TA100, Metabolic Activation: RAT, LIVER, S-9, PHENOBARBITAL AND BETA-NAPHTHOFLAVONE, Method: PREINCUBATION): active; positive
Cc1ccc(Cl)cc1[N+](=O)[O-]	inactive; negative	–	inactive; negative	–	inactive; negative	inactive; negative	–
